Values quoted from earlier work, collected in patent US11311621B2, “Organosilicon compound microparticles and process for their preparation” (SILICIUM ESPAÑA LABORATORIOS, S.L., priority 2018, dated 2022).

Conditions: 21° C., without irreversible polymerization after 2 months

monomethylsilanetriol [MMST]
solubility of MMST in water without irreversible polymerization: up to 21 mM | solubility of MMST in water without irreversible polymerization (as silicon): ≤ 588 mg Si/L
